The text below walks through data of US4877795A, “4H-quinolizin-4-one compounds useful for the treatment of allergic bronchial asthma, allergic rhinitis atropic dermatitis and the like” (Kissei Pharmaceutical Co., Ltd., priority 1987, dated 1989).

Assay [1] concerns IgE. The assay is described as follows: Determination of Igs produced in in vitro culture: inhibition of IgE secreted by spleen cells (adoptive secondary immune response to DNP-As), ELISA. Type of assay: cell-based, BALB/c mice. The conditions noted are these: Mus musculus, 96 h, 4 days culture; for inhibition at 5 µg/mL: 5.0 μg/ml; for inhibition at 10 µg/mL: 10.0 μg/ml; for inhibition at 40 µg/mL: 40.0 μg/ml; for inhibition at 1 µg/mL: 1.0 μg/ml; for inhibition at 2.5 µg/mL: 2.5 μg/ml. How it is done:
(§1) Determination of Igs produced in in vitro culture
(§2) BALB/c mice were immunized intraperitoneally with 5 μg of DNP-As adsorbed in 4 mg aluminum hydroxide gel. 4 weeks after the immunization, the spleens were excised from the mice and 5×10^7 spleen cells were transferred intravenously into the recipient mice which had been exposed to 600 rad of X-ray irradiation. Immediately after cell transfer, the recipients were then immunized intraperitoneally with 5 μg of DNP-As adsorbed in 4 mg aluminum hydroxide gel to induce adoptive secondary immune response. Further 4 weeks after the immunization of recipients, the spleens were excised from them and the spleen cell suspensions 5×10^6 cells/ml were cultured with or without a compound to be tested in 96-well micro plates at 37° C. for 4 days. IgE and IgG secreted into the culture supernatant was each determined correspondingly by ELISA and the inhibitory effect was calculated according to the following equation. [formula]
(In general: An ELISA detects its analyte on a solid surface through an enzyme-linked reagent.)

Assay [2] relates to IgG. In words: Determination of Igs produced in in vitro culture: inhibition of IgG secreted by spleen cells (adoptive secondary immune response to DNP-As), ELISA. Type of assay: cell-based, BALB/c mice. The following applies: Mus musculus, 96 h, 4 days culture; for inhibition at 5 µg/mL: 5.0 μg/ml; for inhibition at 10 µg/mL: 10.0 μg/ml; for inhibition at 40 µg/mL: 40.0 μg/ml; for inhibition at 1 µg/mL: 1.0 μg/ml; for inhibition at 2.5 µg/mL: 2.5 μg/ml. The method, then:
as §1, §2

A word on the inhibition: it is the drop in the measured response relative to a control, in per cent.

`CCOC(=O)c1c(SC(C)C)c(C#N)c(=O)n2ccccc12` [S-57, Ethyl 3-cyano-2-isopropylthio-4H-quinolizin-4-one-1-carboxylate]: the inhibition at 5 µg/mL stood at 53% in assay [1] and 32% in assay [2].
As for `CCCCSc1c(C#N)c(=O)n2ccccc2c1C(=O)OCC` [S-58, Ethyl 3-cyano-2-butylthio-4H-quinolizin-4-one-1-carboxylate], the inhibition at 10 µg/mL in assay [1] was found to be 89%; in assay [2], 60%.
On to `CCOC(=O)c1c(SCc2ccccc2)c(C#N)c(=O)n2ccccc12` [S-59, Ethyl 3-cyano-2-benzylthio-4H-quinolizin-4-one-1-carboxylate], for which the results for the inhibition at 40 µg/mL in assay [1] and in assay [2] were 74% and 49%, respectively.
As to `CSc1c(C#N)c(=O)n2ccccc2c1C(=O)N(Cc1ccccc1)Cc1ccccc1` [S-60, 3-Cyano-N,N-dibenzyl-2-methylthio-4H-quinolizin-4-one-1-carboxamide], the inhibition at 1 µg/mL in assay [1] was 58%; in assay [2], 25%.
Turning to `CSc1c(C#N)c(=O)n2ccccc2c1C(=O)N(C1CCCCC1)C1CCCCC1` [S-61, 3-Cyano-N,N-dicyclohexyl-2-methylthio-4H-quinolizin-4-one-1-carboxamide], the figures for the inhibition at 2.5 µg/mL in assay [1] and in assay [2] were 93% and 48%, respectively.
Take `CCN(CC)C(=O)c1c(SC)c(C#N)c(=O)n2ccccc12` [S-62, 3-Cyano-N,N-diethyl-2-methylthio-4H-quinolizin-4-one-1-carboxamide]: the values for the inhibition at 40 µg/mL in assay [1] and in assay [2] were 64% and 36%, respectively.
For `CSc1c(C#N)c(=O)n2ccccc2c1C(=O)N(C(C)C)C(C)C` [S-63, 3-Cyano-N,N-diisopropyl-2-methylthio-4H-quinolizin-4-one-1-carboxamide], in that order: 85% and 47%.
For `CSc1c(C#N)c(=O)n2ccccc2c1C(=O)N(CC(C)C)CC(C)C` [S-64, 3-Cyano-N,N-diisobutyl-2-methylthio-4H-quinolizin-4-one-1-carboxamide], the figures for the inhibition at 5 µg/mL in assay [1] and in assay [2] were 65% and 41%, respectively.
Turning to `CCCCCCN(CCCCCC)C(=O)c1c(SC)c(C#N)c(=O)n2ccccc12` [S-65, 3-Cyano-N,N-dihexyl-2-methylthio-4H-quinolizin-4-one-1-carboxamide], the inhibition at 2.5 µg/mL in assay [1] was 87%; in assay [2] it was 40%.
`CSc1c(C#N)c(=O)n2ccccc2c1C(=O)N(C)Cc1ccccc1` [S-66, N-Benzyl-3-cyano-N-methyl-2-methylthio-4H-quinolizin-4-one-1-carboxamide]: the inhibition at 40 µg/mL in assay [1] is 64%; in assay [2] it was 35%.
With `CSc1c(C#N)c(=O)n2ccccc2c1C(=O)N(CCNc1ccccc1)c1ccccc1` [S-67, 3-Cyano-2-methylthio-N-phenyl-N-(2-phenylaminoethyl)-4H-quinolizin-4-one-1-carboxamide], the values for the inhibition at 2.5 µg/mL in assay [1] and in assay [2] were 68% and 46%, respectively.
On the same counts, the results for `CSc1c(C#N)c(=O)n2ccccc2c1C(=O)N(Cc1ccccc1)C(C)C` [S-68, N-Benzyl-3-cyano-N-isopropyl-2-methylthio-4H-quinolizin-4-one-1-carboxamide] are 41% and 7%.
On the same counts, the results for `CSc1c(C#N)c(=O)n2ccccc2c1C(=O)N(C(C)C)C1CCCCC1` [S-69, 3-Cyano-N-cyclohexyl-N-isopropyl-2-methylthio-4H-quinolizin-4-one-1-carboxamide] are 56% and 22%.
For `C=CCN(C(=O)c1c(SC)c(C#N)c(=O)n2ccccc12)C1CCCCC1` [S-70, N-Allyl-3-cyano-N-cyclohexyl-2-methylthio-4H-quinolizin-4-one-1-carboxamide], the results for the inhibition at 5 µg/mL in assay [1] and in assay [2] were 65% and 32%, respectively.
On to `CSc1c(C#N)c(=O)n2ccccc2c1C(=O)NCCCc1ccccc1` [S-71], for which the inhibition at 5 µg/mL in assay [1] was determined as 63%; in assay [2], 35%.
Consider `CSc1c(C#N)c(=O)n2ccccc2c1C(=O)NC1CCCCC1` [S-72, 3-Cyano-N-cyclohexyl-2-methylthio-4H-quinolizin-4-one-1-carboxamide], for which the inhibition at 5 µg/mL is 46% in assay [1] and -5% in assay [2].
On to `CSc1c(C#N)c(=O)n2ccccc2c1C(=O)NCc1ccccc1` [S-73, N-Benzyl-3-cyano-2-methylthio-4H-qunolizin-4-one-1-carboxamide], for which the inhibition at 40 µg/mL was found to be 55% in assay [1] and 24% in assay [2].
Turning to `CSc1c(C#N)c(=O)n2ccccc2c1C(=O)Nc1ccc(Nc2ccccc2)cc1` [S-74, N-(4-Anilinophenyl)-3-cyano-2-methylthio-4H-quinolizin-4-one-1-carboxamide], the results for the inhibition at 2.5 µg/mL in assay [1] and in assay [2] were 51% and 10%, respectively.
Regarding `CSc1c(C#N)c(=O)n2ccccc2c1C(=O)Nc1nc(-c2ccccc2)cs1` [S-75, 3-Cyano-2-methylthio-N-(4-phenyl-2-thiazolyl)-4H-quinolizin-4-one-1-carboxamide], the inhibition at 2.5 µg/mL in assay [1] was 50%; in assay [2] it was 25%.
On the same counts, the results for `CSc1c(C#N)c(=O)n2ccccc2c1C(=O)NC1CCCc2ccccc21` (stereo not shown) [S-76, 3-Cyano-2-methylthio-N-(1,2,3,4-tetrahydro-1-naphthyl)-4H-quinolizin-4-one-1-carboxamide] are 37% and 1%.
For the compound `COC(=O)c1ccc(CNC(=O)c2c(SC)c(C#N)c(=O)n3ccccc23)cc1` [S-77], the inhibition at 5 µg/mL was 34% in assay [1] and 10% in assay [2].
For the compound `CSc1c(C#N)c(=O)n2ccccc2c1C(=O)N1CCC(c2ccccc2)CC1` [S-78, 3-Cyano-2-methylthio-1-(4-phenylpiperidinocarbonyl)-4H-quinolizin-4-one], the inhibition at 2.5 µg/mL in assay [1] is 60%; in assay [2], 16%.
`CSc1c(C#N)c(=O)n2ccccc2c1C(=O)N1CCCCC1` [S-79, 3-Cyano-2-methylthio-1-piperidinocarbonyl-4H-quinolizin-4-one]: the results for the inhibition at 40 µg/mL in assay [1] and in assay [2] were 59% and 13%, respectively.
For the compound `CSc1c(C#N)c(=O)n2ccccc2c1C(=O)N1CCC(OC(C)=O)(c2ccccc2)CC1` [S-80, 1-(4-Acetoxy-4-phenylpiperidinocarbonyl)-3-cyano-methylthio-4H-quinolizin-4-one], the inhibition at 2.5 µg/mL in assay [1] came out at 66%; in assay [2], 34%.
On the same counts, the results for `CSc1c(C#N)c(=O)n2ccccc2c1C(=O)N1CCCC2CCCCC21` (stereo not shown) [S-86] are 46% and 21%.
For the compound `CSc1c(C#N)c(=O)n2ccccc2c1C(=O)N1CCc2ccccc2C1` [S-87, 3-Cyano-2-methylthio-1-(1,2,3,4-tetrahydroisoquinolin-2-ylcarbonyl)-4H-quinolizin-4-one], the inhibition at 5 µg/mL turned out to be 61% in assay [1] and 36% in assay [2].
For `CSc1c(C#N)c(=O)n2ccccc2c1C(=O)N1CCCc2ccccc21` [S-88, 3-Cyano-2-methylthio-1-(1,2,3,4-tetrahydroquinolin-1-ylcarbonyl)-4H-quinolizin-4-one], the inhibition at 2.5 µg/mL in assay [1] amounted to 40%; in assay [2], 7%.
`CSc1c(C#N)c(=O)n2ccccc2c1C(=O)N1CCN(Cc2ccc3c(c2)OCO3)CC1` [S-89, 3-Cyano-2-methylthio-1-(4-piperonyl-1-piperadinyl-carbonyl)-4H-quinolizin-4-one]: the figures for the inhibition at 5 µg/mL in assay [1] and in assay [2] were 58% and 32%, respectively.
For `CSc1c(C#N)c(=O)n2ccccc2c1C(=O)N1CCN(Cc2ccccc2)CC1` [S-90, 1-(4-Benzyl-1-piperadinylcarbonyl)-3-cyano-2-methylthio-4H-quinolizin-4-one], in that order: 45% and 14%.
Turning to `CSc1c(C#N)c(=O)n2ccccc2c1C(=O)N1CCN(c2ccccc2)CC1` [S-91, 3-Cyano-2-methylthio-1-(4-phenyl-1-piperadinylcarbonyl)-4H-quinolizin-4-one], the inhibition at 2.5 µg/mL in assay [1] came out at 39%; in assay [2] it was 11%.
In the case of `CSc1c(C#N)c(=O)n2ccccc2c1C(C)=O` [S-92, 1-Acetyl-3-cyano-2-methylthio-4H-quinolizin-4-one], the results for the inhibition at 40 µg/mL in assay [1] and in assay [2] were 56% and 8%, respectively.
In the case of `CCCC(=O)c1c(SC)c(C#N)c(=O)n2ccccc12` [S-93, 1-Butyryl-3-cyano-2-methylthio-4H-quinolizin-4-one], the inhibition at 10 µg/mL in assay [1] stood at 62%; in assay [2], 31%.
`CSc1c(C#N)c(=O)n2ccccc2c1C(=O)CC1CCCCC1` [S-94, 3-Cyano-1-cyclohexylacetyl-2-methylthio-4H-quinolizin-4-one]: the inhibition at 1 µg/mL is 62% in assay [1] and 33% in assay [2].
For the compound `CSc1c(C#N)c(=O)n2ccccc2c1C(=O)Cc1ccccc1` [S-95, 3-Cyano-2-methylthio-1-phenylacetyl-4H-quinolizin-4-one], the inhibition at 20 µg/mL in assay [1] (20.0 μg/ml) is 70%; in assay [2] (20.0 μg/ml) it was 47%.
Take `CSc1c(C#N)c(=O)n2ccccc2c1C(=O)Cc1ccc(Cl)cc1` [S-96, 1-(4-Chlrophenylacetyl)-3-cyano-2-methylthio-4H-quinolizin-4-one]: the inhibition at 5 µg/mL in assay [1] was determined as 41%; in assay [2], 12%.
